# Test results from US9689040B2, “Selective inhibitors of tumor-initiating cells” (Children's Medical Center Corporation, priority 2011, dated 2017).
# “Also recorded” adds a separate entry of the source.
# Legend:
# [1] = tested on: BPLER tumors; assay: BPLER tumor xenografts in Nu/J mice (tumor volume, tumor weight); assay type: in vivo, mouse
# Procedure: We first assessed the effect of bortezomib on pre-established subcutaneous BPLER xenografts in nude mice. […] To reduce experimental variability, we selected mice bearing tumors of homogenous size (˜[…] in diameter after 3 weeks from injection), which were randomized into two groups. Each group received 6 doses of either vehicle (DMSO) or bortezomib at 0.5 mg/kg i.p. q3d over a 16-day period, respectively. At the end of the treatment period, mice were sacrificed and tumor weight was assessed.
# Bortezomib is already in the clinic for treatment of multiple myeloma and other lymphomas. To start investigating potential clinical efficacy in TNBC, BPLER tumor-bearing mice were given 1 dose (0.8 mg/kg) of bortezomib intratumorally (i.t.), intraperitoneally (i.p) or intravenously (i.v.) and proteasome activity in the tumor was assessed after 18 hours (FIG. 6A). […] To assess therapeutic efficacy, we administered bortezomib every 3 days (0.8 mg/kg i.t.) or weekly (1.6 mg/kg i.v.) after BPLER tumors, implanted in the flank of Nu/J mice, became palpable. BPLER tumor outgrowth was assessed by tumor volume during the treatment period and by tumor weight at the time of sacrifice.
# All animal procedures were performed with IACUC approval. Exponentially growing cells were trypsinized with TRYPLE EXPRESS (Invitrogen), resuspended in a 1:1 WIT-Matrigel solution at the indicated numbers, and injected subcutaneously in the flank of 4-week old female Nu/J mice (Stock #002019, Jackson Laboratories). […] Mice were sacrificed 16 days after beginning treatment and tumor weight was assessed.
# [2] = tested on: BPE, HMLER and BPLER cells; assay: Cell cycle distribution (propidium iodide DNA staining)
# [3] = tested on: BPE cells; assay: Apoptosis (Annexin V/PI flow cytometry, caspase 3 and PARP cleavage immunoblot); assay type: cell-based, human; details: clinically relevant / low dose, 24 hours
# Procedure: (§1) BPLER were used as control. […] The percentage of double-positive cells is indicated.
# (§2) To further define factors underlying such properties of BPLER cells, we first determined the molecular mechanism by which proteasome inhibition affects the growth of these cells.
# (§3) Immunoblot was performed as described^41. Primary antibodies were as follows: cleaved Caspase 3 (Cell Signaling, rabbit polyclonal, 1:1000), PARP1 (Santa Cruz, rabbit polyclonal, 1:500), MCL1 (Cell Signaling, Rabbit polyclonal, 1:1000), Bim (Santa Cruz, rabbit polyclonal, 1:500), Bik (Cell Signaling, rabbit polyclonal, 1:1000), Puma (Cell Signaling, rabbit polyclonal, 1:1000), Noxa (Calbiochem, mouse monoclonal, 1:500), Bid (Santa Cruz, rabbit polyclonal, 1:500), Bad (Santa Cruz, rabbit polyclonal, 1:500). Antibodies were diluted in 5% milk in TBS-T and incubated O.N. at 4° C. Secondary mouse and rabbit HRP-conjugated antibodies were from Amersham. Protein signal was detected using the ECL Plus kit (Amersham). For flow cytometry, cells were stained as previously described^33, using the following fluorescent-conjugated antibodies: CD44 (BD Biosciences), CD24 (BD Biosciences), CD326 (ESA, Biolegend), Annexin V (Invitrogen). For immunofluorescence microscopy, cells were fixed in 2% PFA for 10 min, permeabilized with 1% Triton X in PBS for 5 min, and incubated with primary antibodies in 0.5% Triton X, 1% FBS in PBS for 30 min at RT. Antibodies were: CK18 (Santa Cruz, mouse monoclonal, 1:100) and CK14 (Millipore, mouse monoclonal, 1:100). After washing the cells were stained sequentially with AlexaFluor647-conjugated secondary antibody (Invitrogen, 1:200) and DAPI (Sigma, 1:5000). For immunohistochemistry, BPLER tumor sections were prepared from paraffin-embedded tissues, deparaffinized and treated with 10% citrate buffer for 15 min. Staining was performed using a BIOGENEX IHC DAB kit (Biogenex) following the manufacturer's protocol. Primary antibodies were: CK14 (Millipore, mouse monoclonal, 1:100), CK5 (Millipore, mouse monoclonal, 1:100), HH3 (Cell Signaling, rabbit polyclonal, 1:100), ER (Abcam, mouse monoclonal, 1:100), Vimentin (Invitrogen, mouse monoclonal 1:100), Ki67 (Millipore, mouse monoclonal, 1:100).
# [4] = tested on: BPLER cells; assay: as above; assay type: cell-based, human; details: clinically relevant / low dose, 24 hours
# Procedure: as §1, §2, §3
# [5] = tested on: HMLER cells; assay: as above; assay type: cell-based, human; details: clinically relevant / low dose, 24 hours
# Procedure: as §1, §2, §3
# [6] = tested on: BPLER cells; assay: Cell viability after drug treatment (CellTiterGlo / Trypan-Blue); assay type: cell-based, human
# [7] = tested on: mesenchymal MDA-MB-231 and MDA-MB-436 cells; assay: cells; details: Homo sapiens, 24 h, read-out: decrease of cell viability
# [8] = target: proteasome (Homo sapiens, UniProt P28074); assay: Proteasome activity in BPLER and HMLER cells (ProteaGlo assay); details: 6 hr after treatment
# Chain of proteasome (P28074 60-263): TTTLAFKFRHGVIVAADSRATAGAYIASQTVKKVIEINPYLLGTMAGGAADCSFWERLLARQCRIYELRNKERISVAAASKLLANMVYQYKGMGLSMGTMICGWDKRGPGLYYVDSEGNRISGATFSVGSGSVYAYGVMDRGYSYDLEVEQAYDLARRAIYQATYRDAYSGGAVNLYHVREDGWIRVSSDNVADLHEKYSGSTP
# [9] = tested on: MB-468 tumors; assay: MB-468 tumor-bearing mice; assay type: in vivo, mouse; details: intratumoral or intravenous regimen, 45 days
# Procedure: (6G) Mean tumor volume in MB-468 tumor-bearing mice after intravenous treatment with 1.6 mg/kg bortezomib weekly.
# Mean tumor volume in MB-468 tumor-bearing mice upon intratumoral infusion of bortezomib (0.8 mg/kg) or DMSO q3d.
# Treatment was started once mice developed palpable tumors.
# [10] = tested on: luminal MCF7 and BT-474 cells; assay: Viability of breast cancer cell lines treated with bortezomib (CellTiterGlo); assay type: cell-based, human
smiles,measurement,setting,value
CC(C)C[C@H](NC(=O)[C@H](Cc1ccccc1)NC(=O)c1cnccn1)B(O)O [bortezomib],reduction of median tumor weight,"[1]; 0.5 mg/kg i.p. q3d, 6 doses, after 16 days",54%
same,"tumors smaller than in control mice (tumor volume, average)",[1]; 0.8 mg/kg i.t. every 3 days,85%
same,tumors weighed less than in control mice (average),[1]; 0.8 mg/kg i.t. every 3 days,91%
same,"tumors smaller than in control mice (tumor volume, average)",[1]; 1.6 mg/kg i.v. weekly,59%
same,tumors weighed less than in control mice (average),[1]; 1.6 mg/kg i.v. weekly,63%
same,Noxa induction and caspase 3 cleavage in tumors,[1]; immunohistochemistry and western blot,induced Noxa induction and caspase 3 cleavage in vivo
same,cell cycle distribution,"[2]; BPE cells, 24 hours",underwent G2/M arrest
same,cell cycle distribution,"[2]; BPLER cells, low dose",did not undergo cell cycle arrest
same,cell cycle distribution,"[2]; HMLER cells, low dose",underwent G2/M arrest
same,apoptosis (cleavage of caspase 3 and PARP),[3],resistant to bortezomib-induced apoptosis
same,apoptosis (cleavage of caspase 3 and PARP),[4],marked cleavage; also recorded: died of apoptosis
same,apoptosis (cleavage of caspase 3 and PARP),[5],only partially; also recorded: minimal signs of apoptosis
same,sensitivity of BPLER relative to HMLER cells (viability),"[6]; increasing doses, 24 hr",more sensitive
same,response of BPLER cells at confluence,[6]; non-dividing (confluent) cells,became resistant
same,cytotoxicity at 0.0125 µM,[7],20 to 25%
same,proteasomal activity in BPLER and HMLER,[8],similarly inhibited proteasome activity
same,tumors smaller compared to control mice,[9],at least 6 fold
same,cytotoxicity at 0.0125 µM,"[10]; Homo sapiens, luminal cells, 12.5 nM, 24 hr, read-out: decrease of cell viability",5%
same,sensitivity of ER+ and HER2+ breast cancer cell lines,"[10]; MCF7, BT-474",resistant
